Experimental data from ChEMBL document CHEMBL3351515, “α-Hexylcinnamaldehyde inhibits the genotoxicity of environmental pollutants in the bacterial reverse mutation assay” (2014).

Assays:
Salmonella typhimurium [1] = assay: Antimutagenic activity against sodium azide-induced revertant colonies in Salmonella typhimurium TA100 assessed as number of revertant colonies measured pretreatment at 9 uM (reference value: 1968 +/- 46.9) in absence of mammalian S9 fraction; type: functional, Salmonella enterica subsp. enterica serovar Typhimurium
Salmonella typhimurium [2] = assay: Antimutagenic activity against sodium azide-induced revertant colonies in Salmonella typhimurium TA100 assessed as number of revertant colonies measured pretreatment at 18 uM (reference value: 1968 +/- 46.9) in absence of mammalian S9 fraction; type: functional, Salmonella enterica subsp. enterica serovar Typhimurium
Salmonella typhimurium [3] = assay: Antimutagenic activity against 2-aminoanthracene-induced revertant colonies in Salmonella typhimurium TA100 assessed as number of revertant colonies measured pretreatment at 90 uM (reference value: 481.3 +/- 5.3) in presence of mammalian S9 fraction; type: functional, Salmonella enterica subsp. enterica serovar Typhimurium
Salmonella typhimurium [4] = assay: Antimutagenic activity against 2-aminoanthracene-induced revertant colonies in Salmonella typhimurium TA100 assessed as number of revertant colonies measured pretreatment at 900 uM (reference value: 481.3 +/- 5.3) in presence of mammalian S9 fraction; type: functional, Salmonella enterica subsp. enterica serovar Typhimurium
Salmonella typhimurium [5] = assay: Antimutagenic activity against sodium azide-induced revertant colonies in Salmonella typhimurium TA100 assessed as number of revertant colonies measured cotreatment at 9 uM (reference value: 1588 +/- 55.6) in absence of mammalian S9 fraction; type: functional, Salmonella enterica subsp. enterica serovar Typhimurium
Salmonella typhimurium [6] = assay: Antimutagenic activity against 2-aminoanthracene-induced revertant colonies in Salmonella typhimurium TA100 assessed as number of revertant colonies measured cotreatment at 9 uM (reference value: 457.9 +/- 16.74) in presence of mammalian S9 fraction; type: functional, Salmonella enterica subsp. enterica serovar Typhimurium
Salmonella typhimurium [7] = assay: Antimutagenic activity against 2-aminoanthracene-induced revertant colonies in Salmonella typhimurium TA100 assessed as number of revertant colonies measured cotreatment at 180 uM (reference value: 457.9 +/- 16.74) in presence of mammalian S9 fraction; type: functional, Salmonella enterica subsp. enterica serovar Typhimurium
Salmonella typhimurium [8] = assay: Antimutagenic activity against 2-aminoanthracene-induced revertant colonies in Salmonella typhimurium TA100 assessed as number of revertant colonies measured post-treatment at 90 uM (reference value: 642.7 +/- 2.7) in presence of mammalian S9 fraction; type: functional, Salmonella enterica subsp. enterica serovar Typhimurium
Salmonella typhimurium [9] = assay: Antimutagenic activity against 2-aminoanthracene-induced revertant colonies in Salmonella typhimurium TA100 assessed as number of revertant colonies measured post-treatment at 180 uM (reference value: 642.7 +/- 2.7) in presence of mammalian S9 fraction; type: functional, Salmonella enterica subsp. enterica serovar Typhimurium
Salmonella typhimurium [10] = assay: Antimutagenic activity against 2-aminoanthracene-induced revertant colonies in Salmonella typhimurium TA100 assessed as number of revertant colonies measured post-treatment at 900 uM (reference value: 642.7 +/- 2.7) in presence of mammalian S9 fraction; type: functional, Salmonella enterica subsp. enterica serovar Typhimurium
Escherichia coli [11] = assay: Antimutagenic activity against methyl methansulfonate-induced revertant colonies in Escherichia coli WP2uvrA assessed as number of revertant colonies measured pretreatment at 90 uM (reference value: 466.7 +/- 40.4) in absence of mammalian S9 fraction; type: functional
Escherichia coli [12] = assay: Antimutagenic activity against methyl methansulfonate-induced revertant colonies in Escherichia coli WP2uvrA assessed as number of revertant colonies measured pretreatment at 900 uM (reference value: 466.7 +/- 40.4) in absence of mammalian S9 fraction; type: functional
Escherichia coli [13] = assay: Antimutagenic activity against 2-aminoanthracene-induced revertant colonies in Escherichia coli WP2uvrA assessed as number of revertant colonies measured pretreatment at 9 uM (reference value: 178.7 +/- 11.8) in presence of mammalian S9 fraction; type: functional
Escherichia coli [14] = assay: Antimutagenic activity against 2-aminoanthracene-induced revertant colonies in Escherichia coli WP2uvrA assessed as number of revertant colonies measured pretreatment at 180 uM (reference value: 178.7 +/- 11.8) in presence of mammalian S9 fraction; type: functional
Escherichia coli [15] = assay: Antimutagenic activity against methyl methansulfonate-induced revertant colonies in Escherichia coli WP2uvrA assessed as number of revertant colonies measured cotreatment at 18 uM (reference value: 485.3 +/- 17.5) in absence of mammalian S9 fraction; type: functional
Escherichia coli [16] = assay: Antimutagenic activity against methyl methansulfonate-induced revertant colonies in Escherichia coli WP2uvrA assessed as number of revertant colonies measured cotreatment at 90 uM (reference value: 485.3 +/- 17.5) in absence of mammalian S9 fraction; type: functional
Escherichia coli [17] = assay: Antimutagenic activity against methyl methansulfonate-induced revertant colonies in Escherichia coli WP2uvrA assessed as number of revertant colonies measured cotreatment at 900 uM (reference value: 485.3 +/- 17.5) in absence of mammalian S9 fraction; type: functional
Escherichia coli [18] = assay: Antimutagenic activity against 2-aminoanthracene-induced revertant colonies in Escherichia coli WP2uvrA assessed as number of revertant colonies measured cotreatment at 180 uM (reference value: 366 +/- 10.3) in presence of mammalian S9 fraction; type: functional
Escherichia coli [19] = assay: Antimutagenic activity against 2-aminoanthracene-induced revertant colonies in Escherichia coli WP2uvrA assessed as number of revertant colonies measured cotreatment at 900 uM (reference value: 366 +/- 10.3) in presence of mammalian S9 fraction; type: functional
Escherichia coli [20] = assay: Antimutagenic activity against methyl methansulfonate-induced revertant colonies in Escherichia coli WP2uvrA assessed as number of revertant colonies measured post-treatment at 9 uM (reference value: 726.7 +/- 12.7) in absence of mammalian S9 fraction; type: functional
Escherichia coli [21] = assay: Antimutagenic activity against methyl methansulfonate-induced revertant colonies in Escherichia coli WP2uvrA assessed as number of revertant colonies measured post-treatment at 18 uM (reference value: 726.7 +/- 12.7) in absence of mammalian S9 fraction; type: functional
Escherichia coli [22] = assay: Antimutagenic activity against 2-aminoanthracene-induced revertant colonies in Escherichia coli WP2uvrA assessed as number of revertant colonies measured post-treatment at 9 uM (reference value: 308 +/- 4) in presence of mammalian S9 fraction; type: functional
Salmonella typhimurium [23] = assay: Antimutagenic activity against 2-nitrofluorene-induced revertant colonies in Salmonella typhimurium TA98 assessed as inhibition of mutagenicity measured at 9 to 18 uM; type: functional, Salmonella enterica subsp. enterica serovar Typhimurium
Salmonella typhimurium [24] = assay: Antimutagenic activity against 1-nitropyrene-induced revertant colonies in Salmonella typhimurium TA98 assessed as inhibition of mutagenicity measured at 9 to 18 uM; type: functional, Salmonella enterica subsp. enterica serovar Typhimurium
Salmonella typhimurium [25] = assay: Antimutagenic activity against 1-nitropyrene-induced revertant colonies in Salmonella typhimurium TA98 assessed as inhibition of mutagenicity measured at 90 to 180 uM; type: functional, Salmonella enterica subsp. enterica serovar Typhimurium
Salmonella typhimurium [26] = assay: Antimutagenic activity against 1,8-dinitropyrene-induced revertant colonies in Salmonella typhimurium TA98 assessed as inhibition of mutagenicity measured at 9 to 18 uM; type: functional, Salmonella enterica subsp. enterica serovar Typhimurium
Salmonella typhimurium [27] = assay: Antimutagenic activity against 1,8-dinitropyrene-induced revertant colonies in Salmonella typhimurium TA98 assessed as inhibition of mutagenicity measured at 900 uM; type: functional, Salmonella enterica subsp. enterica serovar Typhimurium; details: Salmonella enterica
Salmonella typhimurium [28] = assay: Antimutagenic activity against 4-nitroquinoline N-oxide-induced revertant colonies in Salmonella typhimurium TA98 assessed as inhibition of mutagenicity measured at 900 uM; type: functional, Salmonella enterica subsp. enterica serovar Typhimurium; details: Salmonella enterica
Salmonella typhimurium [29] = assay: Antimutagenic activity against 1-nitropyrene-induced revertant colonies in Salmonella typhimurium TA98NR assessed as inhibition of mutagenicity measured at 90 to 180 uM; type: functional, Salmonella enterica subsp. enterica serovar Typhimurium
Salmonella typhimurium [30] = assay: Antimutagenic activity against 1-nitropyrene-induced revertant colonies in Salmonella typhimurium TA98 1,8 DNP assessed as inhibition of mutagenicity measured at 9 to 18 uM; type: functional, Salmonella enterica subsp. enterica serovar Typhimurium

## CCCCCC/C(C=O)=C\c1ccccc1
Salmonella typhimurium [1]
  Activity: 1877
Salmonella typhimurium [2]
  Activity: 1861
Salmonella typhimurium [3]
  Activity: 454.7
Salmonella typhimurium [4]
  Activity: 365.3
Salmonella typhimurium [5]
  Activity: 1519
Salmonella typhimurium [6]
  Activity: 449.3
Salmonella typhimurium [7]
  Activity: 404
Salmonella typhimurium [8]
  Activity: 530
Salmonella typhimurium [9]
  Activity: 520
Salmonella typhimurium [10]
  Activity: 481.3
Escherichia coli [11]
  Activity: 436
Escherichia coli [12]
  Activity: 365.3
Escherichia coli [13]
  Activity: 170.7
Escherichia coli [14]
  Activity: 147
Escherichia coli [15]
  Activity: 485.3
Escherichia coli [16]
  Activity: 466.7
Escherichia coli [17]
  Activity: 402.7
Escherichia coli [18]
  Activity: 318.7
Escherichia coli [19]
  Activity: 293.5
Escherichia coli [20]
  Activity: 528
Escherichia coli [21]
  Activity: 524
Escherichia coli [22]
  Activity: 294.7
Salmonella typhimurium [23]
  inhibition (INH): <25%
Salmonella typhimurium [24]
  inhibition (INH): <25%
Salmonella typhimurium [25]
  inhibition (INH): 25%
Salmonella typhimurium [26]
  inhibition (INH): <25%
Salmonella typhimurium [27]
  inhibition at 900 µM: > 40%
Salmonella typhimurium [28]
  inhibition at 900 µM: > 40%
Salmonella typhimurium [29]
  inhibition (INH): 25%
Salmonella typhimurium [30]
  inhibition (INH): <25%
